Source: paper PMC7760315 (Biomolecules, 2020)
Several values for one entry are separate records, joined by “and”; a condition that tells them apart may be missing. Equal values may be shown once. Read-outs that look alike come from different tables or passages of the source.

What was measured:
GlyRα1/GlyT1 [1] = target: T1, GlyRα1/GlyT1 (Homo sapiens, UniProt P48067); assay: Two-electrode voltage clamp, oocytes co-expressing GlyRα1/GlyT1; format: cell-based; conditions: 1 μM ALX-5407; 1 mM Na+ buffer
T1 construct: expressed in transfected cells; host or cells: Xenopus laevis oocytes (cRNA co-injection)
T1 sequence (P48067 1-652 isoform P48067-3): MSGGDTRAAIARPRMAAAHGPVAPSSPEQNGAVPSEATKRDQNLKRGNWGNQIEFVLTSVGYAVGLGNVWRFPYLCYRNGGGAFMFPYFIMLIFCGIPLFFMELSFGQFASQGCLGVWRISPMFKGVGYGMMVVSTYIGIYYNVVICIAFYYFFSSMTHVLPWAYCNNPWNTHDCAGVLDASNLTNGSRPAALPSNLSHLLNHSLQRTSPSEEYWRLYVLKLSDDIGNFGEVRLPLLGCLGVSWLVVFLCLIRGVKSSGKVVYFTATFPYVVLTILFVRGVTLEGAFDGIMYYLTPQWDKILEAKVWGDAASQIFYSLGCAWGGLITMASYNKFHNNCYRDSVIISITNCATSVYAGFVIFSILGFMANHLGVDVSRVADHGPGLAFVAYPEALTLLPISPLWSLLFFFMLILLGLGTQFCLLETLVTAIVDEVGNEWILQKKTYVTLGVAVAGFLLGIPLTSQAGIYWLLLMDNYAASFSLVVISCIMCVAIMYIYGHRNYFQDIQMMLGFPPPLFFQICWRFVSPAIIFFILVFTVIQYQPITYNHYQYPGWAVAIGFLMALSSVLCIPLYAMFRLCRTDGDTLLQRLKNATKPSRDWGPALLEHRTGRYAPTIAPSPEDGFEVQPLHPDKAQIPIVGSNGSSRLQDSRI
Description: (§1) Human GlyT1b and GlyT2a WT cDNA were subcloned into the plasmid oocyte transcription vector (pOTV) and human GlyRα1, GlyRα3 and GlyRβ into pGEMHE. GlyR cDNA pGEMHE vectors were provided by Mary Collins at the University of Sydney (Sydney, Australia). Single point mutations were introduced into GlyRα1 using the Q5 site-directed mutagenesis kit (New England Biolabs (Genesearch), Arundel, Australia) with oligonucleotide primers (Merck, Sydney, Australia) containing the desired mutations. The amplified cDNA/pOTV or cDNA/pGEMHE product was then transformed in E. coli cells, and subsequently purified using the PureLink Quick Plasmid Miniprep Kit (Invitrogen by Life Technologies, Löhne, Germany), and sequenced by the Australian Genome Research Facility (Sydney, Australia). The purified plasmid DNA was linearised via the restriction enzyme, SpeI (New England Biolabs (Genesearch), Arundel, Australia) for GlyT1b and GlyT2a (henceforth referred to as GlyT1 and GlyT2 respectively) and NheI (New England Biolabs (Genesearch)) for GlyRα1, GlyRα3 and GlyRβ. Complementary RNAs were synthesised using the mMESAGE mMACHINE T7 kit (Ambion, Austin, TX, USA).
(§2) All work involving the use of animals was performed in accordance with the Australian Code of Practice for the Care and Use of Animals for Scientific Purposes and approved by the University of Sydney Animal Ethics Committee (Approval numbers 2016/970 and 2020/1704). […] The oocytes were then stored in frog Ringer’s solution (96 mM NaCl, 2 mM KCl, 1 mM MgCl2, 1.8 mM CaCl2, 5 mM HEPES, pH 7.5) which was supplemented with 2.5 mM sodium pyruvate, 0.5 mM theophylline, 50 μg/mL gentamicin and […] tetracycline. The oocytes were stored at 18 °C for 3–5 days, until transporter and receptor expression were adequate for measurement using the two-electrode voltage clamp technique.
(§3) GlyT1, GlyT2, GlyRα1, GlyRα3, GlyRα1β and GlyRα3β are electrogenic, allowing activation to be measured via the two-electrode voltage clamp technique. Oocytes were voltage clamped at −60 mV, and whole-cell currents generated by the substrate were recorded with a Geneclamp 500 amplifier (Axon Instruments, Foster City, CA, USA), digitised by a Powerlab 2/20 chart recorder (ADInstruments, Sydney, Australia). LabChart version 8 software (ADInstruments, Sydney, Australia) was used to visualise and process current traces. Recordings were performed in frog Ringer’s solution, except for low Na^+ experiments where Na^+ was replaced with choline. Oocytes were placed in an oval-shaped bath with a volume of 0.3 mL, with laminar flow around the oocyte at a rate of 12 mL min^−1 under gravity feed.
(§4) Varying concentrations of substrate or agonist were applied to cells in ND96.
(§5) Flow of the solution was stopped until the current plateaued, by manually closing a three-way valve on one end of the bath such that the solution in the bath was static and is referred to henceforth as ‘stop-flow’.

GlyRα1/GlyT1 [2] = target: T2, GlyRα1/GlyT1 (Homo sapiens, UniProt P23415); assay: as above; format: cell-based; conditions: 1 µM inhibitor; fast-flow
T2 construct: expressed in transfected cells; host or cells: Xenopus laevis oocytes (cRNA co-injection)
T2 sequence (P23415 29-457): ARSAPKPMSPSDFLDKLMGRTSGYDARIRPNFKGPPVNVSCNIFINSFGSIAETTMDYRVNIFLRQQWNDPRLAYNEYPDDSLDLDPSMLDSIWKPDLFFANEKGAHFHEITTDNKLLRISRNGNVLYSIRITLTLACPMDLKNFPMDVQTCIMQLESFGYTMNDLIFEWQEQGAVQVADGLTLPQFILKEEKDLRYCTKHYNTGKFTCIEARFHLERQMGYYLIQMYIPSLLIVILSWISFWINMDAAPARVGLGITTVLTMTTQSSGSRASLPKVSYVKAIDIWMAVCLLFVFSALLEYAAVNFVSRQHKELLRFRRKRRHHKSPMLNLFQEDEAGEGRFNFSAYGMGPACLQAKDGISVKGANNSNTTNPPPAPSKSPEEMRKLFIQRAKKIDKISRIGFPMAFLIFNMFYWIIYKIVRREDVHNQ
Description: as §1, §2, §3, §4, §5

GlyT1 = conditions: cited from earlier work
GlyRα1 [3] = conditions: cited from earlier work; for GlyRα1 Potentiation at EC5 (%): % stimulation of glycine EC5 caused by 1 µM lipid
GlyT2 = conditions: cited from earlier work; for GlyT2 Activity: % Inhibition (1 µM): 1 µM lipid, inhibition of glycine transport; for IC50: inhibition of glycine transport by GlyT2; for GlyT2 Activity: Max inhibition (%): maximal level of inhibition observed
GlyRα1 [4] = target: T3, GlyRα1 (Homo sapiens, UniProt P23415); assay: Two-electrode voltage clamp, Xenopus laevis oocytes expressing GlyRα1 alone; format: cell-based; conditions: 1 µM lipid; fast-flow
T3 construct: expressed in transfected cells; host or cells: Xenopus laevis oocytes (cRNA injection)
T3 sequence (P23415 29-457): T2 sequence (P23415 29-457)
Description: as §1, §2, §3, §4, §5

| Compound | stopped flow increase in current amplitude (reverse glycine transport / efflux) (GlyRα1/GlyT1 [1]) | nH of glycine dose-response in the presence of GlyT inhibitor (GlyRα1/GlyT1 [2]) [ns] | IC50 (GlyT1) [nM] | GlyRα1 Potentiation at EC5 (%) (GlyRα1 [3]) | GlyT2 Activity: % Inhibition (1 µM) (GlyT2) [%] | IC50 (GlyT2) [nM] | nH of glycine dose-response in the presence of lipid (GlyRα1 [4]) [ns] | GlyT2 Activity: Max inhibition (%) (GlyT2) | GlyRα1 Potentiation at EC5 (%) (GlyRα1 [3]; listed as 18-cis-ω9-glycine) | effect on Imax of GlyRα1 (GlyRα1 [3]; dose-dependent) | effect on glycine EC50 of GlyRα1 (GlyRα1 [3]; dose-dependent) | GlyT2 Activity: % Inhibition (1 µM) (GlyT2; listed as 18-cis-ω9-glycine) [%] |
| --- | --- | --- | --- | --- | --- | --- | --- | --- | --- | --- | --- | --- |
| CN(CC[C@@H](Oc1ccc(-c2ccccc2)cc1)c1ccc(F)cc1)CC(=O)O [ALX-5407] | prevents | 2.0 ± 0.2 | 3 | – | – | – | – | – | – | – | – | – |
| CCCCCC/C=C\CCCCCCCCCC(=O)NCC(=O)O [C18-cis-ω7-glycine] | – | – | – | 184.7 ± 41.3 (5) % | 10.5 ± 0.02 | > 10000 | 2.8 ± 0.3 | – | – | – | – | – |
| CCCCCCCCC=CCCCCCCCC(=O)NC(CCSC)C(=O)O [C18-cis-ω9-L-methionine] | – | – | – | 2.2 ± 4.2% and 2.2 ± 4.2 (6) % | 84.9 ± 0.07 | 29.2 | 2.2 ± 0.3 | 91.2 | – | – | – | – |
| CCCCCCCC/C=C\CCCCCCCC(=O)NCC(=O)O [C18-cis-ω9-glycine] | – | – | – | 84.7 ± 14.0% | 50.1 ± 0.06 | 31 | 2.4 ± 0.2 | 95.0 | 84.7 ± 14.0 (8) % | increases | decreases | 89.6 ± 0.01 |
